PMC6270872, “Xanthenedione Derivatives, New Promising Antioxidant and Acetylcholinesterase Inhibitor Agents” (Molecules, 2014)
Values after ≈ are worked out from the molar mass of the structure shown. “Also recorded” adds a separate entry of the source.

Key:
[1] = molecular target: T1, AChE from Electrophorus electricus (Electrophorus electricus, UniProt O42275); experiment: biochemical; format: biochemical; conditions: for IC50: ± SD, n = 4, read-out: Anti-AChE IC50
T1 construct: purchased Sigma-Aldrich Chemical Company, St. Louis, MO, USA
T1 sequence (O42275 24-633): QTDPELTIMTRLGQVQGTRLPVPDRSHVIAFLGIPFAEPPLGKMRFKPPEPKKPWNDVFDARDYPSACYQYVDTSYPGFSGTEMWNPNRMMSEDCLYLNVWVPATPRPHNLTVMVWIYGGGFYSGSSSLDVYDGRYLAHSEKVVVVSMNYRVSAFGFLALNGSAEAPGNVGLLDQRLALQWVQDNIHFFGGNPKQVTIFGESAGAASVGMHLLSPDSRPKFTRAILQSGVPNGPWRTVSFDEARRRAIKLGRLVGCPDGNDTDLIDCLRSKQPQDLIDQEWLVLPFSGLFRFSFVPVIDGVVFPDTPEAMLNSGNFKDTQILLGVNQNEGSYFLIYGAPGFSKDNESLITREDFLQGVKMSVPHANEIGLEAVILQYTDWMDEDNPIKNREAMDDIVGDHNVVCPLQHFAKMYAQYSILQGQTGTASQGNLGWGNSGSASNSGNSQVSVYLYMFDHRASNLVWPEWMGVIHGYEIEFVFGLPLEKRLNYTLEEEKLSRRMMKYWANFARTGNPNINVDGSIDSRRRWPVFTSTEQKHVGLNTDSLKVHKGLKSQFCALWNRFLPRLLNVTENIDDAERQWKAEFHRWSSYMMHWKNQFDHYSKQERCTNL
Description: The AChE activity was evaluated using the method described by Ellman et al. and Ingkaninan et al., modified. Briefly, 10 μL of 0.25 U/mL AChE from Electrophorus electricus (Sigma-Aldrich® Chemical Company, St. Louis, MO, USA) was added to the wells containing sample in different concentrations, and allowed to incubate for 5 min. Reaction was started by the addition 5 μL of 3 mM 5,5'-dithiobis[2-nitrobenzoic acid] (DTNB,) and 5 μL of 75 mM acetylthiocholine iodide (ATCI; Fluka Chemicals, Buchs, Switzerland). The absorbance was then read at 415 nm every 2.5 min for 7.5 min in a Bio Rad Model 680 Microplate Reader (Bio-Rad Laboratories, Inc., Hercules, CA, USA). Percentage of enzymatic inhibition was calculated relatively to the control without inhibitor. Every experiment was done in quadruplicate. […] PROGRAM Version 1.4 was used.

[2] = Reducing power, potassium ferricyanide reduction method; conditions: four concentrations, 20–80 μg/mL; absorbance at 700 nm; references BHT and quercetin (Figure 3)
Description: The reductive potential of the compounds and standard was determined according to a previously described method. An aliquot of the sample or standard (1.0 mL) at various concentrations (20–80 μg/mL in DMSO) was mixed with phosphate buffer (0.2 mol L^−^1, pH 6.6, 1.25 mL) and 1% potassium ferricyanide (1.25 mL). The mixture was incubated at 50 °C for 20 min. After cooling, 1.25 mL of 10% trichloroacetic acid was added and the mixture incubated at 50 °C for 10 min. 1.25 mL of this solution was mixed with distilled water (1.25 mL) and 0.1% iron(III) chloride (0.25 mL) and the absorbance measured at 700 nm using an appropriate blank. Assays were carried out in triplicate.

[3] = DPPH radical scavenging assay; conditions: for EC50: concentration of the compound to reduce the DPPH radical concentration to 50%, ± SD; for Radical Scavenging Activity AE (antiradical efficiency): AE = 1/(EC50 × TEC50), TEC50 = time to reach the steady state for the EC50
Description: Antioxidant activity was assayed by the DPPH (1,1-diphenyl-2-picrylhydrazyl) radical scavenging assay using the Blois method modified. […] In each assay, a control was prepared, in which the compound or standard (quercetin and BHT) was substituted by the same amount of solvent. The mixture was shaken vigorously and left to stand for 30 min in the dark, and the absorbance was then measured at 517 nm. The capability to scavenge the DPPH radical was calculated using the following equation: DPPH scavenging activity (%) = [(Ac − As)/Ac] × 100(1) where, Ac is the absorbance of the control and As is the absorbance of the compound or standard. All assays were carried out in triplicate and results expressed as EC50, i.e., as the concentration yielding 50% scavenging of DPPH, calculated by interpolation from the % vs. concentration curve.

[4] = Maximum soluble concentration in the DPPH assay; format: physicochemical; conditions: ethanol (ethanolic solution of the DPPH assay), ethanolic solutions, read-out: maximum concentration at which the compound is soluble
Description: Antioxidant activity was assayed by the DPPH (1,1-diphenyl-2-picrylhydrazyl) radical scavenging assay using the Blois method modified [24]. Briefly, different volumes of the ethanolic solutions of each compound or standard (1–100 µM) were added fixed volume of DPPH ethanolic solution (400 µL of the solution 0.6 mM) and solvent (ethanol) to obtain, in each case, a fixed total volume. In each assay, a control was prepared, in which the compound or standard (quercetin and BHT) was substituted by the same amount of solvent. The mixture was shaken vigorously and left to stand for 30 min in the dark, and the absorbance was then measured at 517 nm. The capability to scavenge the DPPH radical was calculated using the following equation: DPPH scavenging activity (%) = [(Ac − As)/Ac] × 100(1) where, Ac is the absorbance of the control and As is the absorbance of the compound or standard. All assays were carried out in triplicate and results expressed as EC50, i.e., as the concentration yielding 50% scavenging of DPPH, calculated by interpolation from the % vs. concentration curve.

| Structure (SMILES) | IC50 [1] [µM] | Reducing power (reduction of ferric ion) [2] | DPPH quenched ([3]; at 552 µM, the maximum soluble concentration) [%] | EC50 [3] [µM] | solubility [4] [µM] | Type of AChE inhibition [1] | Radical Scavenging Activity AE (antiradical efficiency) [3] |
| --- | --- | --- | --- | --- | --- | --- | --- |
| O=C1CC(c2ccccc2)C(=Cc2ccccc2)c2oc3cccc(O)c3c(=O)c21 (centres unmarked) [Compound 5a, (E)-3-Aryl-4-benzylidene-8-hydroxy-3,4-dihydro-1H-xanthene-1,9(2H)-dione] | > 381 | did not significantly reduce ferric ion | – | – | – | – | – |
| Cc1ccc(/C=C2/c3oc4cccc(O)c4c(=O)c3C(=O)CC2c2ccc(C)cc2)cc1 (centres unmarked) [Compound 5b, (E)-8-Hydroxy-4-(4-methylbenzylidene)-3-(4-methylphenyl)-3,4-dihydro-1H-xanthene-1,9(2H)-dione] | > 355 | – | – | – | – | – | – |
| O=C1CC(c2ccc(O)cc2)C(=Cc2ccc(O)cc2)c2oc3cccc(O)c3c(=O)c21 (centres unmarked) [Compound 5c] | 41.1 ± 6.1 | did not significantly reduce ferric ion | 36 | > 552 | 552 (≈ 235 µg/mL) | mixed type inhibition | – |
| O=C1CC(c2ccc(Cl)cc2)C(=Cc2ccc(Cl)cc2)c2oc3cccc(O)c3c(=O)c21 (centres unmarked) [Compound 5d] | > 325 | – | – | – | – | – | – |
| O=C1CC(c2ccc(O)c(O)c2)C(=Cc2ccc(O)c(O)c2)c2oc3cccc(O)c3c(=O)c21 (centres unmarked) [Compound 5e, (E)-8-Hydroxy-4-(3,4-dihydroxybenzylidene)-3-(3,4-dihydroxyphenyl)-3,4-dihydro-1H-xanthene-1,9-(2H)-dione] | 31 ± 0.09 | higher reduction capacity than BHT and similar to quercetin; also recorded: more efficient than BHT and similar to quercetin | – | 3.79 ± 0.06 | – | almost pure competitive type inhibition | 0.026 |
| O=C1CC(c2ccccc2Cl)/C(=C\c2ccccc2Cl)c2oc3cccc(O)c3c(=O)c21 (centres unmarked) [Compound 5f, (E)-4-(2-Chlorobenzylidene)-3-(2-chlorophenyl)-8-hydroxy-3,4-dihydro-1H-xanthene-1,9(2H)-dione] | > 325 | – | – | – | – | – | – |
| O=c1c(O)c(-c2ccc(O)c(O)c2)oc2cc(O)cc(O)c12 [Quercetin, reference compound] | – | – | – | 5.97 ± 0.11 | – | – | 0.0042 |
| Cc1c(C)c2c(c(C)c1O)CCC(C)(C(=O)O)O2 (centres unmarked) [Trolox, reference compound] | – | – | – | 18.7 ± 0.65 | – | – | 0.011 |
